Entries after “also recorded” stand apart in the source; their conditions may differ.
Experiments:
MAP2+ neurons = assay: Count of MAP2+ neurons in primary mesencephalic cultures (phenotypic specificity); assay type: cell-based, rat; conditions: DIV12; 10 nM and 100 nM; FIG. 5
Text: (§1) At 8 days of culture, the cells are fixed by a 4% formaldehyde solution and then washed three times with PBS. The cells then undergo several immunohistochemistry procedures: • anti-tyrosine hydroxylase (TH) visualized by a secondary antibody coupled to a fluorochrome that emits in the red spectrum (Cy3). • anti-MAP2 (MAP=microtubule-associated protein) (neuron marker) visualized by a secondary antibody coupled to a fluorochrome that emits in the green spectrum (alexa488). • DAPI (4′,6-diamidino-2-phenylindole), a nuclear marker that emits in the blue spectrum.
Neuroprotection is evaluated by counting TH positive neurons directly under the microscope or MAP2 positive on images, at 15 images per well, expressed as a percentage of the untreated control. The experiments include three wells per condition. Three independent experiments are carried out under these conditions. Total neurite length per cell calculated by the Neurite Outgrowth software by Explora Nova on 20 neurons photographed independently per well gives an indication of the state of maturation of the dopaminergic neurons. […]
First, the neurons are cultured and maintained at DIV12. […] The neurons are then counted via image with X20 enlargement at 15 images per well.

[1] = tested on: fetal dopaminergic neurons in culture; assay: Neuroprotection and differentiation of dopaminergic (TH+) neurons in primary culture of rat embryo mesencephalon (spontaneous degeneration model); assay type: cell-based; set-up: key to Diff (qualitative assessment of neuron differentiation): + indicates that the neurons have a morphology similar to that of the control; ++ and +++ indicate the presence of neurons whose extensions are longer and more numerous than the control neurons; ++ and +++ indicate the presence of neurons whose extensions are longer and more numerous than the control neurons; − indicates that the neurons have neurites that are shorter and less numerous than the control neurons
Protocol: Dissection consists in extracting the embryos from the uterus of a rat at fifteen days of gestation. The brain of each embryo is then dissected under a binocular magnifier in order to extract the ventral mesencephalon.
The mesencephalons are gathered in a flask containing 2 ml of L15 medium and then mechanically dissociated (30 times), and then 5 ml of L15 medium are added. The suspension is left to rest for 8 minutes. 5 ml of the supernatant are recovered in a new flask and the cells are dissociated again (30 times). 5 ml of L15 are again added and the suspension is left to rest for 8 minutes. 5 ml of supernatant are added to the preceding. The cells thus extracted are then centrifuged for 5 minutes at 1,000 rpm. The cell pellet is taken up in Neurobasal medium supplemented with 1% B27, 1% glutamine and 1% penicillin/streptomycin mixture. The cells are then inoculated at the appropriate dilution (0.6 embryo per well on a 24-well plate and 0.4 per well on a 48-well plate). The cultures are incubated at 37° C. in a humid atmosphere enriched with 5% CO2 in a 24- or 48-well plate.
After 24 hours, two-thirds of the medium of each well is replaced by new medium enriched with the compound of the invention to test at the appropriate dilution. The medium is replaced in the same way after 4 days of culture.
as §1
Neuroprotection is evaluated by counting TH positive neurons directly under the microscope or MAP2 positive on images, at 15 images per well, expressed as a percentage of the untreated control. The experiments include three wells per condition. Three independent experiments are carried out under these conditions. Total neurite length per cell calculated by the Neurite Outgrowth software by Explora Nova on 20 neurons photographed independently per well gives an indication of the state of maturation of the dopaminergic neurons.
The compounds of the invention were tested on a model of spontaneous degeneration of dopaminergic neurons in culture.
This model consists of culturing cells of the ventral mesencephalon of rat embryo. This part of the brain in culture contains dopaminergic neurons and other primarily GABAergic neurons. These cultures are also composed of glial cells, namely astrocytes, oligodendrocytes and microglia. This is a model of spontaneous degeneration of dopaminergic neurons which mimics certain aspects of Parkinson's disease.
The neuroprotective effect of the compounds of the invention was evaluated by counting dopaminergic neurons (TH^+) marked by tyrosine hydroxylase (TH) immunohistochemistry after 8 days of culture. Thus the compounds were evaluated at 1 nM, 10 nM, 100 nM and 1 μM and were compared with the activity of dibutyryl cyclic AMP (db-cAMP) used as the reference product.
In order to evaluate more quantitatively the activity of the compounds of the invention, neurite growth per cell was measured using the Neurite Outgrowth software developed by Explora Nova. A minimum of 60 neurons per condition were photographed and studied, and the results were then averaged and normalized by the number of neurons considered.

SMILES: C#CC(O)CCCCCCCCCCCCC#Cc1ccc2ccccc2n1 (stereo not drawn) [Compound N3, 17-(quinolin-2-yl)heptadec-1,16-diyn-3-ol]
- survival of total neurons of the culture (MAP2+ neurons) versus untreated control (MAP2+ neurons): increased
- dose-response of effect on survival of dopaminergic neurons ([1]; 1 nM, 10 nM, 100 nM and 1 μM, FIG. 2): dose-dependent
- Diff (qualitative assessment of neuron differentiation) ([1]; 100 nM, dopaminergic neurons in culture): +++
- viability at 0.1 µM ([1]; Rattus norvegicus, Neuron, 192 h, 100 nM, survival of TH+ dopaminergic neurons after 8 days of culture, read-out: % Neurons relative to the control ±SEM): 154 ± 4.1%
- neuroprotective activity (percentage of survival of dopaminergic neurons), in words, versus reference product db-cAMP ([1]; dopaminergic neurons, 8 days of culture): equal to or greater than that of the reference product; also recorded: the most active compound
- concentration of maximum effect on survival of dopaminergic neurons ([1]; dose-response curve, FIG. 2): 100 nM

— US8445511B2, “Quinoline or quinoxaline derivatives for treating neurodegenerative diseases” (Centre National de la Recherche Scientifique (SNRS), priority 2008, dated 2013)
